Experimental data published in patent US12077503B2, “Substituted cyclic amides and their use as herbicides” (FMC CORPORATION, priority 2015, dated 2024).

How the values were obtained:
Assay type in all cases: in vivo
Kochia (Kochia scoparia) [1] = test: Test A preemergence; settings: for Plant response rating, Kochia: 125 g ai/ha; for Kochia plant response rating (0 to 100 scale, 0 is no effect, 100 is complete control): visual injury approx. 10 d
Outline: (§1)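 Visual injury scores from 0, no effect, to 100, complete control, were assigned versus untreated controls roughly 10 d after treatment in the greenhouse. Test chemicals, formulated with surfactant in a non-phytotoxic solvent, were applied to planted seeds as a preemergence soil spray or postemergence to one- to two-leaf plants 2 to 10 cm tall, in loam–sand soil.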

[2] = tested on: barnyardgrass (Echinochloa crus-galli); test: Test A preemergence; settings: for Plant response rating, Barnyardgrass: 125 g ai/ha; for Barnyardgrass plant response rating (0 to 100 scale, 0 is no effect, 100 is complete control): visual injury approx. 10 d
Outline: as §1

[3] = tested on: giant foxtail (Setaria faberii); test: Test A preemergence; settings: for Plant response rating, Foxtail, Giant: 125 g ai/ha; for Foxtail, Giant plant response rating (0 to 100 scale, 0 is no effect, 100 is complete control): visual injury approx. 10 d
Outline: as §1

[4] = tested on: pigweed (Amaranthus retroflexus); test: Test A preemergence; settings: for Plant response rating, Pigweed: 125 g ai/ha; for Pigweed plant response rating (0 to 100 scale, 0 is no effect, 100 is complete control): visual injury approx. 10 d
[5] = tested on: ragweed (common ragweed, Ambrosia elatior); test: Test A preemergence; settings: for Plant response rating, Ragweed: 125 g ai/ha; for Ragweed plant response rating (0 to 100 scale, 0 is no effect, 100 is complete control): visual injury approx. 10 d
Outline: as §1

[6] = tested on: ryegrass, Italian (Italian ryegrass, Lolium multiflorum); test: Test A preemergence; settings: for Plant response rating, Ryegrass, Italian: 125 g ai/ha; for Ryegrass, Italian plant response rating (0 to 100 scale, 0 is no effect, 100 is complete control): visual injury approx. 10 d
Outline: as §1

[7] = tested on: Galium (catchweed bedstraw, Galium aparine); test: Test A postemergence; settings: for Galium plant response rating: visual injury rating on 0 to 100 scale (0 no effect, 100 complete control), approx. 10 d
Outline: as §1

Kochia (Kochia scoparia) [8] = test: Test A postemergence; settings: for Kochia plant response rating: visual injury rating on 0 to 100 scale (0 no effect, 100 complete control), approx. 10 d
Outline: as §1

[9] = tested on: barnyardgrass (Echinochloa crus-galli); test: Test A postemergence; settings: for Barnyardgrass plant response rating: visual injury rating on 0 to 100 scale (0 no effect, 100 complete control)
Outline: as §1

[10] = tested on: blackgrass (Alopecurus myosuroides); test: Test A postemergence; settings: for Blackgrass plant response rating: visual injury rating on 0 to 100 scale (0 no effect, 100 complete control)
Outline: as §1

corn (Zea mays) = test: Test A postemergence; settings: for Corn plant response rating: visual injury rating on 0 to 100 scale (0 no effect, 100 complete control), approx. 10 d
Outline: as §1

[11] = tested on: giant foxtail (Setaria faberii); test: Test A postemergence; settings: for Foxtail, Giant plant response rating: visual injury rating on 0 to 100 scale (0 no effect, 100 complete control), approx. 10 d
Outline: as §1

[12] = tested on: pigweed (Amaranthus retroflexus); test: Test A postemergence; settings: for Pigweed plant response rating: visual injury rating on 0 to 100 scale (0 no effect, 100 complete control), approx. 10 d
Outline: as §1

[13] = tested on: ragweed (common ragweed, Ambrosia elatior); test: Test A postemergence; settings: for Ragweed plant response rating: visual injury rating on 0 to 100 scale (0 no effect, 100 complete control), approx. 10 d
Outline: as §1

[14] = tested on: ryegrass, Italian (Italian ryegrass, Lolium multiflorum); test: Test A postemergence; settings: for Ryegrass, Italian plant response rating: visual injury rating on 0 to 100 scale (0 no effect, 100 complete control), approx. 10 d
Outline: as §1

[15] = tested on: wheat (Triticum aestivum); test: Test A postemergence; settings: for Wheat plant response rating: visual injury rating on 0 to 100 scale (0 no effect, 100 complete control), approx. 10 d
Outline: as §1

[16] = tested on: barnyardgrass (Echinochloa crus-galli); test: Test B flooded paddy test; settings: Flood, 0 to 100 scale where 0 is no effect and 100 is complete control, 13 to 15 d
Outline: (§2)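 Visual ratings (0 none to 100 complete control) are relative to untreated plants, taken 13–15 d after treatment in a greenhouse. Test material went straight into floodwater standing 3 cm above the soil, kept constant, on plants at the 2-leaf stage.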

[17] = tested on: ducksalad (Heteranthera limosa); test: Test B flooded paddy test; settings: Flood, 0 to 100 scale where 0 is no effect and 100 is complete control, 13 to 15 d
Outline: as §2

rice (Oryra sativa) = test: Test B flooded paddy test; settings: Flood, 0 to 100 scale where 0 is no effect and 100 is complete control, 13 to 15 d
Outline: as §2

[18] = tested on: sedge, umbrella (small-flower umbrella sedge, Cyperus difformis); test: Test B flooded paddy test; settings: Flood, 0 to 100 scale where 0 is no effect and 100 is complete control, 13 to 15 d
Outline: as §2

[19] = Preemergence, visual injury after approximately 10 d, 0 to 100 scale where 0 is no effect and 100 is complete control
[20] = Postemergence, 500 g ai/ha, 0 to 100 scale where 0 is no effect and 100 is complete control
[21] = 125 g ai/ha, postemergence, approx. 10 d
[22] = preemergence, 0 to 100 scale (0 no effect, 100 complete control)
[23] = Preemergence, 500 g ai/ha, 0 is no effect, 100 is complete control
[24] = 500 g ai/ha, postemergence, 0 to 100 scale, 0 no effect, 100 complete control
[25] = Postemergence, 125 g ai/ha, visual injury, 0 to 100 scale (0 no effect, 100 complete control), approx. 10 d
[26] = 125 g ai/ha, postemergence, visual rating after approx. 10 d, 0 to 100 scale (0 no effect, 100 complete control)

Compound: O=C(Nc1cccc(F)c1F)C1C(=O)N(CC=CCl)CC1c1cccc(C(F)(F)F)c1 (stereo not drawn) [Compound 485]
- Plant response rating, Kochia (Kochia (Kochia scoparia) [1]; [19]): 0
- Kochia plant response rating (0 to 100 scale, 0 is no effect, 100 is complete control) (Kochia (Kochia scoparia) [1]; Preemergence, 500 g ai/ha): 0
- Plant response rating, Barnyardgrass [2, 19]: 30
- Barnyardgrass plant response rating (0 to 100 scale, 0 is no effect, 100 is complete control) ([2]; Preemergence, 500 g ai/ha): 80
- Plant response rating, Foxtail, Giant [3, 19]: 70
- Foxtail, Giant plant response rating (0 to 100 scale, 0 is no effect, 100 is complete control) ([3]; Preemergence, 500 g ai/ha): 90
- Plant response rating, Pigweed [4, 19]: 0
- Pigweed plant response rating (0 to 100 scale, 0 is no effect, 100 is complete control) ([4]; Preemergence, 500 g ai/ha): 0
- Plant response rating, Ragweed [5, 19]: 0
- Ragweed plant response rating (0 to 100 scale, 0 is no effect, 100 is complete control) ([5]; Preemergence, 500 g ai/ha): 0
- Plant response rating, Ryegrass, Italian [6, 19]: 0
- Ryegrass, Italian plant response rating (0 to 100 scale, 0 is no effect, 100 is complete control) ([6]; Preemergence, 500 g ai/ha): 0
- Galium plant response rating ([7]; 125 g ai/ha, postemergence): 0
- Plant response rating, Galium [7, 20]: 30
- Kochia plant response rating (Kochia (Kochia scoparia) [8]; 125 g ai/ha, postemergence): 0
- Plant response rating, Kochia (Kochia (Kochia scoparia) [8]; [20]): 30
- Barnyardgrass plant response rating [9, 21]: 20
- Plant response rating, Barnyardgrass [9, 20]: 50
- Blackgrass plant response rating [10, 21]: 0
- Plant response rating, Blackgrass [10, 20]: 0
- Corn plant response rating (corn (Zea mays); 125 g ai/ha, postemergence): 0
- Plant response rating, Corn (corn (Zea mays); [20]): 20
- Foxtail, Giant plant response rating ([11]; 125 g ai/ha, postemergence): 20
- Plant response rating, Foxtail, Giant [11, 20]: 70
- Pigweed plant response rating ([12]; 125 g ai/ha, postemergence): 0
- Plant response rating, Pigweed [12, 20]: 40
- Ragweed plant response rating ([13]; 125 g ai/ha, postemergence): 0
- Plant response rating, Ragweed [13, 20]: 0
- Ryegrass, Italian plant response rating ([14]; 125 g ai/ha, postemergence): 0
- Plant response rating, Ryegrass, Italian [14, 20]: 0
- Wheat plant response rating ([15]; 125 g ai/ha, postemergence): 0
- Plant response rating, Wheat [15, 20]: 20
- Plant response rating, Barnyardgrass ([16]; 250 g ai/ha): 0
- Plant response rating, Ducksalad ([17]; 250 g ai/ha): 40
- Plant response rating, Rice (rice (Oryra sativa); 250 g ai/ha): 0
- Plant response rating, Sedge, Umbrella ([18]; 250 g ai/ha): 0

Compound: O=C1NCC(c2cccc(OCC(F)F)c2)C1C(=O)Nc1ccc(F)cc1F (stereo not drawn) [Compound 388]
- Plant response rating, Kochia (Kochia (Kochia scoparia) [1]; [22]): 0
- Kochia plant response rating (0 to 100 scale) (Kochia (Kochia scoparia) [1]; [23]): 0
- Plant response rating, Barnyardgrass [2, 22]: 60
- Barnyardgrass plant response rating (0 to 100 scale) [2, 23]: 80
- Plant response rating, Foxtail, Giant [3, 22]: 80
- Foxtail, Giant plant response rating (0 to 100 scale) [3, 23]: 90
- Plant response rating, Pigweed [4, 22]: 0
- Pigweed plant response rating (0 to 100 scale) [4, 23]: 0
- Plant response rating, Ragweed [5, 22]: 0
- Ragweed plant response rating (0 to 100 scale) [5, 23]: 0
- Plant response rating, Ryegrass, Italian [6, 22]: 0
- Ryegrass, Italian plant response rating (0 to 100 scale) [6, 23]: 0
- Galium plant response rating ([7]; 125 g ai/ha, postemergence): 0
- Plant response rating, Galium [7, 24]: 30
- Kochia plant response rating (Kochia (Kochia scoparia) [8]; 125 g ai/ha, postemergence): 0
- Plant response rating, Kochia (Kochia (Kochia scoparia) [8]; [24]): 0
- Plant response rating, Barnyardgrass [9, 24]: 70
- Plant response rating, Barnyardgrass [9, 25]: 30
- Plant response rating, Blackgrass [10, 24]: 50
- Plant response rating, Blackgrass [10, 25]: 10
- Corn plant response rating (corn (Zea mays); 125 g ai/ha, postemergence): 0
- Plant response rating, Corn (corn (Zea mays); [24]): 0
- Foxtail, Giant plant response rating ([11]; 125 g ai/ha, postemergence): 50
- Plant response rating, Foxtail, Giant [11, 24]: 80
- Pigweed plant response rating ([12]; 125 g ai/ha, postemergence): 0
- Plant response rating, Pigweed [12, 24]: 0
- Ragweed plant response rating ([13]; 125 g ai/ha, postemergence): 0
- Plant response rating, Ragweed [13, 24]: 0
- Ryegrass, Italian plant response rating ([14]; 125 g ai/ha, postemergence): 0
- Plant response rating, Ryegrass, Italian [14, 24]: 0
- Wheat plant response rating ([15]; 125 g ai/ha, postemergence): 0
- Plant response rating, Wheat [15, 24]: 0
- Plant response rating, Barnyardgrass ([16]; 500 g ai/ha): 0
- Plant response rating, Ducksalad ([17]; 500 g ai/ha): 75
- Plant response rating, Rice (rice (Oryra sativa); 500 g ai/ha): 0
- Plant response rating, Sedge, Umbrella ([18]; 500 g ai/ha): 0

Compound: O=C1NCC(c2ccc(Oc3ccccc3)cc2)C1C(=O)Nc1ccc(F)c(F)c1F (racemic) [Compound 537]
- Plant response rating, Kochia (Kochia (Kochia scoparia) [1]; [19]): 0
- Kochia plant response rating (0 to 100 scale, 0 is no effect, 100 is complete control) (Kochia (Kochia scoparia) [1]; Preemergence, 500 g ai/ha): 0
- Plant response rating, Barnyardgrass [2, 19]: 0
- Barnyardgrass plant response rating (0 to 100 scale, 0 is no effect, 100 is complete control) ([2]; Preemergence, 500 g ai/ha): 0
- Plant response rating, Foxtail, Giant [3, 19]: 0
- Foxtail, Giant plant response rating (0 to 100 scale, 0 is no effect, 100 is complete control) ([3]; Preemergence, 500 g ai/ha): 0
- Plant response rating, Pigweed [4, 19]: 0
- Pigweed plant response rating (0 to 100 scale, 0 is no effect, 100 is complete control) ([4]; Preemergence, 500 g ai/ha): 0
- Plant response rating, Ragweed [5, 19]: 0
- Ragweed plant response rating (0 to 100 scale, 0 is no effect, 100 is complete control) ([5]; Preemergence, 500 g ai/ha): 0
- Plant response rating, Ryegrass, Italian [6, 19]: 0
- Ryegrass, Italian plant response rating (0 to 100 scale, 0 is no effect, 100 is complete control) ([6]; Preemergence, 500 g ai/ha): 0
- Plant response rating, Galium [7, 26]: 0
- Plant response rating, Galium [7, 20]: 0
- Plant response rating, Kochia (Kochia (Kochia scoparia) [8]; [26]): 0
- Plant response rating, Kochia (Kochia (Kochia scoparia) [8]; [20]): 0
- Barnyardgrass plant response rating [9, 21]: 0
- Plant response rating, Barnyardgrass [9, 20]: 0
- Blackgrass plant response rating [10, 21]: 0
- Plant response rating, Blackgrass [10, 20]: 0
- Plant response rating, Corn (corn (Zea mays); [26]): 0
- Plant response rating, Corn (corn (Zea mays); [20]): 0
- Plant response rating, Foxtail, Giant [11, 26]: 0
- Plant response rating, Foxtail, Giant [11, 20]: 0
- Plant response rating, Pigweed [12, 26]: 0
- Plant response rating, Pigweed [12, 20]: 0
- Plant response rating, Ragweed [13, 26]: 0
- Plant response rating, Ragweed [13, 20]: 0
- Plant response rating, Ryegrass, Italian [14, 26]: 0
- Plant response rating, Ryegrass, Italian [14, 20]: 0
- Plant response rating, Wheat [15, 26]: 0
- Plant response rating, Wheat [15, 20]: 0
- Plant response rating, Barnyardgrass ([16]; 500 g ai/ha): 30
- Plant response rating, Ducksalad ([17]; 500 g ai/ha): 0
- Plant response rating, Rice (rice (Oryra sativa); 500 g ai/ha): 20
- Plant response rating, Sedge, Umbrella ([18]; 500 g ai/ha): 50
